Tests used:
[1] = biological target: T1, PIP4K2B (Homo sapiens, UniProt P78356); test: Trans-FI P kinase assay PIP4K2B (PIP4KtypeIIB inhibition assay); type: biochemical; conditions: compounds listed under IC50 bin headings; 100 uM GTP; read-out: Trans-FI P kinase assays: PIP4K2B IC50
T1 construct: made in house; host or cells: E. coli
T1 sequence (P78356 1-416): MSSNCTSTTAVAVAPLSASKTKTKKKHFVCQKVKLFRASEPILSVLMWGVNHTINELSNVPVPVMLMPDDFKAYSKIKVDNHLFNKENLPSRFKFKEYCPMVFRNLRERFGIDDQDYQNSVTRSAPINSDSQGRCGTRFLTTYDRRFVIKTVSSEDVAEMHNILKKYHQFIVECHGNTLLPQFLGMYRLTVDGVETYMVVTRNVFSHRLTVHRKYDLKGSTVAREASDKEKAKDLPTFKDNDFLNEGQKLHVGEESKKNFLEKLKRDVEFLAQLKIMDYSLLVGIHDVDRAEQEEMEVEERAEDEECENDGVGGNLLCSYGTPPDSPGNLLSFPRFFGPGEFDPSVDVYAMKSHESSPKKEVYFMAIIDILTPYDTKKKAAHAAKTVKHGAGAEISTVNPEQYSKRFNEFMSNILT
In short: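 Transcreener FI fluorescence read-out of GDP formed by E. coli-expressed GST-PIP4K2B (5 nM) using 100 uM GTP and 80 uM PI5P with DOPE carrier lipid, pH 7.3, 2 h reaction. Compounds (up to 4.8 uM) were preincubated with enzyme 1 h at 27 C; IC50 fitted from residual activity relative to no-inhibitor control.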

[2] = biological target: T2, PIP4K 2A (Homo sapiens, UniProt P48426); test: ADP-glo kinase assay PIP4K 2A; type: biochemical; design: 4 nM PIP4K2A (full length protein, SignalChem); purchased SignalChem; conditions: compounds listed under IC50 bin headings
T2 sequence (P48426 1-406): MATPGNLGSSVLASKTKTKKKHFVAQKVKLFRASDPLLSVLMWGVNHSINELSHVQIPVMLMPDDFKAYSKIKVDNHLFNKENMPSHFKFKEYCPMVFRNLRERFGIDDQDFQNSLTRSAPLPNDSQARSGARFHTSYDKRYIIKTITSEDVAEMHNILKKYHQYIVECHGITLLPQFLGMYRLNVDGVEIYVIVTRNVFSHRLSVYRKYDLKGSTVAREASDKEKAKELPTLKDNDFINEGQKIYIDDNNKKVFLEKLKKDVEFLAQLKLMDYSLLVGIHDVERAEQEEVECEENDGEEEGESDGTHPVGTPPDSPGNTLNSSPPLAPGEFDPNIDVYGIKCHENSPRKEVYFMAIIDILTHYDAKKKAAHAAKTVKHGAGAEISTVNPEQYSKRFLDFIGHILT
In short: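 Inhibition was calculated versus DMSO controls from ADP-Glo luminescence and fitted to IC50 over a 10-point, threefold series. Compound was first pre-incubated 15 min at room temperature with PIP4K2A (full-length; 4 nM in the enzyme/substrate mix) and PI(5)P diC8 (100 μM in that mix). The reaction then ran for 1 h after adding 60 μM ATP solution, in MOPS pH 7.2/MgCl2/Tween buffer.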

Structure (SMILES) | IC50 [1] [nM] | IC50 [2] [nM]
CC1Oc2cc(N3CCCC3=O)c(F)cc2-c2cnc(Nc3cnc4c(c3)N3C(=O)C(C)(C)C[C@H]3CO4)cc21 (stereo partly drawn) [Example 153, (6aS)-2-((9-fluoro-5-methyl-8-(2-oxopyrrolidin-1-yl)-5H-chromeno[4,3-c]pyridin-3-yl)amino)-8,8-dimethyl-6,6a,7,8-tetrahydro-9H-pyrido[2,3-b]pyrrolo[1,2-d][1,4]oxazin-9-one] | 1 to 10 | ≤ 1
O=C1CCCN1c1ccc(-c2ccc(Nc3cnc4c(c3)N3C(=O)C5(CC5)C[C@H]3CO4)nc2)cc1F [Example 197, (S)-2′-((5-(3-fluoro-4-(2-oxopyrrolidin-1-yl)phenyl)pyridin-2-yl)amino)-6a′,7′-dihydro-6′H,9′H-spiro[cyclopropane-1,8′-pyrido[2,3-b]pyrrolo[1,2-d][1,4]oxazin]-9′-one] | 1 to 10 | 1 to 10
CC1Oc2cc(N3CCCC3=O)ccc2-c2cnc(Nc3cnc4c(c3)N3C(=O)[C@](C)(O)C[C@H]3CO4)cc21 (stereo partly drawn) [Example 205, (6aS,8R)-8-hydroxy-8-methyl-2-((5-methyl-8-(2-oxopyrrolidin-1-yl)-5H-chromeno[4,3-c]pyridin-3-yl)amino)-6,6a,7,8-tetrahydro-9H-pyrido[2,3-b]pyrrolo[1,2-d][1,4]oxazin-9-one] | 10 to 100 | 10 to 100
CC1Oc2cc(N3CCCC3=O)ccc2-c2cnc(Nc3cncc(NC(=O)CCc4cccc(NC(=O)CCCN(C)C)c4)c3)cc21 (stereo not drawn) [Example 177, 4-(dimethylamino)-N-(3-(3-((5-((5-methyl-8-(2-oxopyrrolidin-1-yl)-5H-chromeno[4,3-c]pyridin-3-yl)amino)pyridin-3-yl)amino)-3-oxopropyl)phenyl)butanamide] | 1 to 10 | 1 to 10
COCCC(=O)N1CCN(c2cncc(Nc3cc4c(cn3)-c3cc(F)c(N5CCCC5=O)cc3OC4C)c2)CC1 (stereo not drawn) [Example 172, 1-(9-fluoro-3-((5-(4-(3-methoxypropanoyl)piperazin-1-yl)pyridin-3-yl)amino)-5-methyl-5H-chromeno[4,3-c]pyridin-8-yl)pyrrolidin-2-one] | 10 to 100 | 1 to 10
CC1C[C@H]2COc3ncc(Nc4cc5c(cn4)-c4ccc(N6CCCC6=O)cc4OC5C)cc3N2C1=O (stereo partly drawn) [Example 155, (6aS)-8-methyl-2-((5-methyl-8-(2-oxopyrrolidin-1-yl)-5H-chromeno[4,3-c]pyridin-3-yl)amino)-6,6a,7,8-tetrahydro-9H-pyrido[2,3-b]pyrrolo[1,2-d][1,4]oxazin-9-one] | 1 to 10 | ≤ 1
CC1Oc2cc(N3CCCC3=O)ccc2-c2cnc(Nc3cnc4c(c3)N3C(=O)CC[C@@H]3CO4)cc21 (stereo partly drawn) [Example 180, (6aR)-2-((5-methyl-8-(2-oxopyrrolidin-1-yl)-5H-chromeno[4,3-c]pyridin-3-yl)amino)-6,6a,7,8-tetrahydro-9H-pyrido[2,3-b]pyrrolo[1,2-d][1,4]oxazin-9-one] | 1 to 10 | ≤ 1
CN(C)C/C=C/C(=O)Nc1ccc(C(=O)Nc2cncc(Nc3cc4c(cn3)-c3ccc(N5CCCC5=O)cc3OC4)c2)cc1 [Example 200, (E)-4-(4-(dimethylamino)but-2-enamido)-N-(5-((8-(2-oxopyrrolidin-1-yl)-5H-chromeno[4,3-c]pyridin-3-yl)amino)pyridin-3-yl)benzamide] | 1 to 10 | 1 to 10
CC1(C)Oc2cc(N3CCCC3=O)ccc2-c2cnc(Nc3cncc(N4CCNC4=O)c3)cc21 [Example 162, 1-(5-((5,5-dimethyl-8-(2-oxopyrrolidin-1-yl)-5H-chromeno[4,3-c]pyridin-3-yl)amino)pyridin-3-yl)imidazolidin-2-one] | 10 to 100 | 1 to 10
CC1Oc2cc(N3CCCC3=O)ccc2-c2cnc(Nc3cnc4c(c3)N3C(=O)C(O)C[C@H]3CO4)cc21 (stereo partly drawn) [Example 206, (6aS)-8-hydroxy-2-((5-methyl-8-(2-oxopyrrolidin-1-yl)-5H-chromeno[4,3-c]pyridin-3-yl)amino)-6,6a,7,8-tetrahydro-9H-pyrido[2,3-b]pyrrolo[1,2-d][1,4]oxazin-9-one] | 1 to 10 | ≤ 1
COCCC(=O)N1CCN(c2cncc(Nc3cc4c(cn3)-c3cc(F)c(N5CCCC5=O)cc3OC4)c2)CC1 [Example 171, 1-(9-fluoro-3-((5-(4-(3-methoxypropanoyl)piperazin-1-yl)pyridin-3-yl)amino)-5H-chromeno[4,3-c]pyridin-8-yl)pyrrolidin-2-one] | 10 to 100 | 10 to 100
CC1Oc2cc(N3CCCC3=O)c(F)cc2-c2cnc(Nc3cnc4c(c3)N3C(=O)C5(CC5)C[C@H]3CO4)cc21 (stereo partly drawn) [Example 154, (6a′S)-2′-((9-fluoro-5-methyl-8-(2-oxopyrrolidin-1-yl)-5H-chromeno[4,3-c]pyridin-3-yl)amino)-6a′,7′-dihydro-6′H,9′H-spiro[cyclopropane-1,8′-pyrido[2,3-b]pyrrolo[1,2-d][1,4]oxazin]-9′-one] | 1 to 10 | ≤ 1
CC1Oc2cc(N3CCCC3=O)ccc2-c2cnc(Nc3cncc(NC(=O)CCc4ccccc4)c3)cc21 (stereo not drawn) [Example 110, N-(5-((5-methyl-8-(2-oxopyrrolidin-1-yl)-5H-chromeno[4,3-c]pyridin-3-yl)amino)pyridin-3-yl)-3-phenylpropanamide] | 10 to 100 | 1 to 10

Continued, values first:

IC50 [1] [nM] | IC50 [2] [nM] | Structure (SMILES)
10 to 100 | 1 to 10 | CC1Oc2cc(N3CCCC3=O)ccc2-c2cnc(Nc3cncc(NC(=O)c4ccncc4)c3)cc21 (stereo not drawn) [Example 114, N-(5-((5-methyl-8-(2-oxopyrrolidin-1-yl)-5H-chromeno[4,3-c]pyridin-3-yl)amino)pyridin-3-yl)isonicotinamide]
10 to 100 | 1 to 10 | CC1Oc2cc(N3CCCC3=O)ccc2-c2cnc(Nc3cncc(NC(=O)c4ccc5c(c4)B(O)OC5)c3)cc21 (stereo not drawn) [Example 117, 1-hydroxy-N-(5-((5-methyl-8-(2-oxopyrrolidin-1-yl)-5H-chromeno[4,3-c]pyridin-3-yl)amino)pyridin-3-yl)-1,3-dihydrobenzo[c][1,2]oxaborole-6-carboxamide]
10 to 100 | 1 to 10 | CC1Oc2cc(N3CCCC3=O)ccc2-c2cnc(Nc3cncc(NC(=O)c4cncc(N)n4)c3)cc21 (stereo not drawn) [Example 126, 6-amino-N-(5-((5-methyl-8-(2-oxopyrrolidin-1-yl)-5H-chromeno[4,3-c]pyridin-3-yl)amino)pyridin-3-yl)pyrazine-2-carboxamide]
10 to 100 | 1 to 10 | CC1Oc2cc(N3CCCC3=O)ccc2-c2cnc(Nc3cncc(NC(=O)c4cccnc4)c3)cc21 (stereo not drawn) [Example 113, N-(5-((5-methyl-8-(2-oxopyrrolidin-1-yl)-5H-chromeno[4,3-c]pyridin-3-yl)amino)pyridin-3-yl)nicotinamide]
10 to 100 | 1 to 10 | CC1Oc2cc(N3CCCC3=O)ccc2-c2cnc(Nc3cncc(NC(=O)c4cccc5[nH]cnc45)c3)cc21 (stereo not drawn) [Example 196, N-(5-((5-methyl-8-(2-oxopyrrolidin-1-yl)-5H-chromeno[4,3-c]pyridin-3-yl)amino)pyridin-3-yl)-1H-benzo[d]imidazole-7-carboxamide]
10 to 100 | 1 to 10 | CC1Oc2cc(N3CCCC3=O)ccc2-c2cnc(Nc3cncc(NC(=O)c4ccccn4)c3)cc21 (stereo not drawn) [Example 112, N-(5-((5-methyl-8-(2-oxopyrrolidin-1-yl)-5H-chromeno[4,3-c]pyridin-3-yl)amino)pyridin-3-yl)picolinamide]
1 to 10 | 1 to 10 | CC1Oc2cc(N3CCCC3=O)ccc2-c2cnc(Nc3cncc(NC(=O)c4cccc5[nH]ccc45)c3)cc21 (stereo not drawn) [Example 123, N-(5-((5-methyl-8-(2-oxopyrrolidin-1-yl)-5H-chromeno[4,3-c]pyridin-3-yl)amino)pyridin-3-yl)-1H-indole-4-carboxamide]
10 to 100 | 1 to 10 | COc1ccc(C(=O)Nc2cncc(Nc3cc4c(cn3)-c3ccc(N5CCCC5=O)cc3OC4C)c2)cc1 (stereo not drawn) [Example 122, 4-methoxy-N-(5-((5-methyl-8-(2-oxopyrrolidin-1-yl)-5H-chromeno[4,3-c]pyridin-3-yl)amino)pyridin-3-yl)benzamide]
